Assays:
S. aureus (ATCC 29213) = test: Filter disc zone of inhibition on tryptic soy agar; type: cell-based; settings: 7 mm filter disc soaked with solution (equivalent of 1% silver nitrate), 37° C. overnight, measured from disc edge, average of two trials
Procedure: (§1) Additionally, a non-stabilized silver thiosulfate complex made according to Example 5. […] Filter paper discs (7 mm diameter) were soaked with either a stabilized silver thiosulfate solution or a non-stabilized silver thiosulfate solution. The antimicrobial studies were performed by first plating S. aureus (ATCC 29213) or E. coli (ATCC 225922) on tryptic soy agar. A disc containing the stabilized thiosulfate solution or the control solution was placed one each of these microbial lawns. […] The culture plates were incubated at 37° C. overnight. The zone of microbial growth inhibition (ZOI) was measured (in millimeters) from the edge of each filter disc and the results from two trials were averaged. The larger the measured ZOI, the greater the antimicrobial effect.

E. coli (ATCC 225922) = test: Filter disc zone of inhibition on tryptic soy agar; type: cell-based; settings: 7 mm filter disc soaked with solution (equivalent of 1% silver nitrate), 37° C. overnight, measured from disc edge, average of two trials
Procedure: as §1

Q: Which results are given for “silver nitrate [Silver Nitrate Solution]”?
A: S. aureus Zone Of Inhibition (S. aureus (ATCC 29213)): 1.5 millimeters; E. coli Zone Of Inhibition (E. coli (ATCC 225922)): 1.0 millimeters

From patent US20040214809A1, “Stabilized silver-ion sulfite complex compositions and methods” (BioInterface Technologies, Inc., priority 2003, published 2004)
